Assay results from patent US20100197591A1, “4-AMINO-7,8-DIHYDROPYRIDO[4,3-d]PYRIMIDIN-5(6H)-ONE DERIVATIVES” (pfizer Inc, priority 2009, published 2010).

Target: T1, Human full-length diacylglycerol:acylCoA acyltransferase 1 (DGAT-1) (Homo sapiens, UniProt O75907)
T1 construct: Human full-length diacylglycerol:acylCoA acyltransferase 1 (DGAT-1) was expressed in Sf9 insect cells; made in house; host or cells: Sf9 insect cells (baculovirus); crude membrane/microsome fraction
T1 sequence (O75907 1-488): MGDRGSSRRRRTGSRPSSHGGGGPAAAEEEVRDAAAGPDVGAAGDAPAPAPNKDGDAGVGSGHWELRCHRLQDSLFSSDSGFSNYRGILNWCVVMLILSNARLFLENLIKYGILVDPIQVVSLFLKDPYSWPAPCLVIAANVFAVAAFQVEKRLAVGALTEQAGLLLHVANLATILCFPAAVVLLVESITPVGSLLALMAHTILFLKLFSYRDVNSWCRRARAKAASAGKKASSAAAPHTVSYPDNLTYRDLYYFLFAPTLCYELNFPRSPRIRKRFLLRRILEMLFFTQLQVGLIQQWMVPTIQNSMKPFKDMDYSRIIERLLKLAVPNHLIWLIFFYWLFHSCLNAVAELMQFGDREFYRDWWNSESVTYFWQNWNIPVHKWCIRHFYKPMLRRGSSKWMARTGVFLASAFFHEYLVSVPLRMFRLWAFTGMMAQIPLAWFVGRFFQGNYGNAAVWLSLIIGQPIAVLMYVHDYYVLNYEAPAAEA
Assay: DGAT-1 Reduced Microsome Multidose Assay, G7329F Human IC50
Assay type: biochemical
Settings: crude membrane fraction of Sf9 cells expressing human DGAT-1; [14C]decanoylCoA; apparent IC50, average where tested more than once
Procedure: Human full-length diacylglycerol:acylCoA acyltransferase 1 (DGAT-1) was expressed in Sf9 insect cells which are then lysed and a crude membrane fraction (105,000×g pellet) was prepared. The DGAT-1 gene is a human DGAT-1 gene described in J Biol Chem 273:26765 (1998) and U.S. Pat. No. 6,100,077.
In vitro inhibition of DGAT-1 was measured using a modification, further described below, of the assay methodology described in U.S. Pat. No. 6,994,956 B2.
The cells were cultured as follows. Sf9 cells (20 L) were infected with 4 mL of DGAT-1 Baculovirus Infected Insect Cells (BIIC) for 72 hours in a Wave Bioreactor System 20/50P (Wave Biotec/GE Healthcare).
Crude DGAT-1 microsomes were prepared as follows. Cell pellets were washed once with ice-cold Dulbecco's phosphate-buffered saline. Cells were collected in tabletop centrifuge (Beckman GS-6KR), 15 minutes, 2000×g, 4° C. Twenty (20) mL of ice-cold Microsome Buffer (MB) was added per 5 g of cell pellet. The suspension was passed through a microfluidizer 3 times (18K psi). The lysate was transferred to centrifuge tubes and centrifuged for 20 minutes at 5000×g (Beckman-Coulter, Inc. Allegra® 64R High-Speed Refrigerated Benchtop Centrifuge, F0650 rotor) at 4° C. The supernatant was transferred to ultracentrifuge tubes and centrifuged at 125,000×g for 1 hour in a Beckman Ti-45 rotor, 4° C. The supernatant fluid was discarded. The pellet was resuspended in 70 mL of MB by sonication. The microsome concentration was determined using Bio-Rad Protein DC Protein Assay. The microsomes were filter sterilized with a 0.22 μm filter. The samples were portioned, flash frozen and stored at −80° C.
The Microsome Buffer, used for microsome preparation, was prepared by conventional means and contained 125 mM sucrose, 3 mM imidazole, 0.2 μg/mL aprotinin, 0.2 μg/mL leupeptin and 5 mM dithiothreitol (Cleland's reagent), DGAT-1 activity was measured in 384-well format in a total assay volume of 25 μl that contained, Hepes buffer (50 mM, pH 7.5), MgCl2 (10 mM), bovine serum albumin (0.6 mg/ml), [^14C]decanoylCoA (20 μM, 58 Ci/mol) and membranes (25 μg/ml) into which 1,2 dioleoyl-sn-glycerol (75 μM) in acetone has already been incorporated. Inhibitors in DMSO were pre-incubated with membranes before initiating the DGAT-1 reaction by the addition of decanoylCoA. […] The DMSO concentration was 2.5%. The inhibitors were present at a range of eight concentrations to generate an apparent IC50 for each compound. The eight inhibitor concentration employed ranged from 10 μM to 3 nM (from high to low concentration). Specifically, the eight concentrations used were 10 μM, 3 μM, 1 μM, 300 nM, 100 nM, 30 nM, 10 nM and 3 nM.
Reaction mixtures were neutralized by the addition of 15 μl of tris(hydroxy-methyl)aminomethane (1M, pH 8.0) and then mixed by trituration with 37.5 μl of Microscint™-E (Perkin Elmer). Plates contents were allowed to partition for 15 to 30 min before ^14C was measured in a scintillation spectrometer (Wallac Microbeta Trilux 1450-030 liquid scintillation counter 12 detector in the top-count DPM mode). Percent inhibition of test compounds was computed as […].
Four separate assays were performed using 4 different methods of analysis. The method of analysis of Assay 1 was the same as Assay 4 (described above) except microsomes were utilized at 25 μg/mL instead of 5 μg/mL. The method of analysis of Assay 2 was the same as Assay 4 (described above) except eleven (11) concentrations of inhibitor were employed instead of eight (8). The method of analysis of Assay 3 was the same as Assay 2 except the compounds were serially diluted in a different laboratory.
Where this DGAT-1 inhibition assay was performed on a compound more than once, an average is provided for that compound.

| SMILES | IC50 |
| --- | --- |
| COc1nc(N)c2c(n1)CCN(c1ccc(OC(F)(F)F)cc1)C2=O [Example 1A, 4-amino-2-methoxy-6-[4-(trifluoromethoxy)phenyl]-7,8-dihydropyrido[4,3-d]pyrimidin-5(6H)-one] | 90.4 nM |
| CCc1ccc(N2CCc3nc(OC)nc(N)c3C2=O)cc1 [Example 1B, 4-amino-6-(4-ethylphenyl)-2-methoxy-7,8-dihydropyrido[4,3-d]pyrimidin-5(6H)-one] | 52.7 nM |
| COc1nc(N)c2c(n1)CCN(c1ccc(CC3CC3)cc1)C2=O [Example 1C, 4-amino-6-[4-(cyclopropylmethyl)phenyl]-2-methoxy-7,8-dihydropyrido[4,3-d]pyrimidin-5(6H)-one] | 11 nM |
| COc1nc(N)c2c(n1)CCN(c1ccc3c(c1)CCC3)C2=O [Example 1D, 4-amino-6-(2,3-dihydro-1H-inden-5-yl)-2-methoxy-7,8-dihydropyrido[4,3-d]pyrimidin-5(6H)-one] | 40.4 nM |
| COc1nc(N)c2c(n1)CCN(c1ccc(C3CC3)cc1)C2=O [Example 1E, 4-amino-6-(4-cyclopropylphenyl)-2-methoxy-7,8-dihydropyrido[4,3-d]pyrimidin-5(6H)-one] | 28.8 nM |
| COc1nc(N)c2c(n1)CCN(c1ccc(C(C)C)c(F)c1)C2=O [Example 1G, 4-amino-6-(3-fluoro-4-isopropylphenyl)-2-methoxy-7,8-dihydropyrido[4,3-d]pyrimidin-5(6H)-one] | 9.66 nM |
| COc1nc(N)c2c(n1)CCN(c1ccc(C3CC(F)(F)C3)cc1)C2=O [Example 1H, 4-amino-6-[4-(3,3-difluorocyclobutyl)phenyl]-2-methoxy-7,8-dihydropyrido[4,3-d]pyrimidin-5(6H)-one] | 57.6 nM |
| COc1nc(N)c2c(n1)CCN(c1ccc([C@H]3C[C@H](O)C3)cc1)C2=O [Example 1I, 4-amino-6-[4-(trans-3-hydroxycyclobutyl)phenyl]-2-methoxy-7,8-dihydropyrido[4,3-d]pyrimidin-5(6H)-one] | 95.8 nM |
| COc1nc(N)c2c(n1)CCN(c1ccc([C@H]3C[C@@H](O)C3)cc1)C2=O [Example 1J, 4-amino-6-[4-(cis-3-hydroxycyclobutyl)phenyl]-2-methoxy-7,8-dihydropyrido[4,3-d]pyrimidin-5(6H)-one] | 59.8 nM |
| COc1nc(N)c2c(n1)CCN(c1ccc(C3(CO)CCC3)cc1)C2=O [Example 1O, 4-amino-6-{4-[1-(hydroxymethyl)cyclobutyl]phenyl}-2-methoxy-7,8-dihydropyrido[4,3-d]pyrimidin-5(6H)-one] | 35.9 nM |
| COc1nc(N)c2c(n1)CCN(c1ccc(C3(C(=O)O)CCC3)cc1)C2=O [Example 1P, 1-[4-(4-amino-2-methoxy-5-oxo-7,8-dihydropyrido[4,3-d]pyrimidin-6(5H)-yl)phenyl]cyclobutanecarboxylic acid] | 67.1 nM |
| COc1nc(N)c2c(n1)CCN(c1ccc(C(C)(C)CO)cc1)C2=O [Example 1T, 4-amino-6-[4-(2-hydroxy-1,1-dimethylethyl)phenyl]-2-methoxy-7,8-dihydropyrido[4,3-d]pyrimidin-5(6H)-one] | 52.9 nM |
| COc1nc(N)c2c(n1)CCN(c1ccc(C(O)(C(F)(F)F)C(F)(F)F)cc1)C2=O [Example 1X, 4-amino-2-methoxy-6-{4-[2,2,2-trifluoro-1-hydroxy-1-(trifluoromethyl)ethyl]phenyl}-7,8-dihydropyrido[4,3-d]pyrimidin-5(6H)-one] | 5.19 nM |
| COc1nc(N)c2c(n1)CCN(c1ccc(C(O)C(F)(F)F)cc1)C2=O (stereo not shown) [Example 1Y, 4-amino-2-methoxy-6-[4-(2,2,2-trifluoro-1-hydroxyethyl)phenyl]-7,8-dihydropyrido[4,3-d]pyrimidin-5(6H)-one] | 46 nM |
| COc1nc(N)c2c(n1)CCN(c1ccc(CC(C)C)cc1)C2=O [Example 1Z, 4-amino-6-(4-isobutylphenyl)-2-methoxy-7,8-dihydropyrido[4,3-d]pyrimidin-5(6H)-one] | 4.92 nM |

Other lines, results leading:

| IC50 | SMILES |
| --- | --- |
| 50.3 nM | COC(=O)c1ccc(N2CCc3nc(OC)nc(N)c3C2=O)cc1 [Example 2A, Methyl 4-(4-amino-2-methoxy-5-oxo-7,8-dihydropyrido[4,3-d]pyrimidin-6(5H)-yl)benzoate] |
| 177 nM | COc1nc(N)c2c(n1)CCN(c1ccc(C(C)(C)O)cc1)C2=O [Example 2B, 4-amino-6-[4-(1-hydroxy-1-methylethyl)phenyl]-2-methoxy-7,8-dihydropyrido[4,3-d]pyrimidin-5(6H)-one] |
| 86.6 nM | COc1nc(N)c2c(n1)CCN(c1ccc(C(C)(C)F)cc1)C2=O [Example 2C, 4-amino-6-[4-(1-fluoro-1-methylethyl)phenyl]-2-methoxy-7,8-dihydropyrido[4,3-d]pyrimidin-5(6H)-one] |
| 34.6 nM | COc1nc(N)c2c(n1)CCN(c1ccc(C(C)(C)OC)cc1)C2=O [Example 2D, 4-amino-2-methoxy-6-[4-(1-methoxy-1-methylethyl)phenyl]-7,8-dihydropyrido[4,3-d]pyrimidin-5(6H)-one] |
| 1480 nM | COc1nc(N)c2c(n1)CCN(c1ccc(C(=O)O)cc1)C2=O [Example 2E, 4-(4-amino-2-methoxy-5-oxo-7,8-dihydropyrido[4,3-d]pyrimidin-6(5H)-yl)benzoic acid] |
| 74.4 nM | COc1nc(N)c2c(n1)CCN(c1ccc(C(=O)OC3CCCCC3)cc1)C2=O [Example 2G, Cyclohexyl 4-(4-amino-2-methoxy-5-oxo-7,8-dihydropyrido[4,3-d]pyrimidin-6(5H)-yl)benzoate] |
| 1370 nM | COc1nc(N)c2c(n1)CCN(c1ccc(C(=O)N(C)C)cc1)C2=O [Example 2H, 4-(4-amino-2-methoxy-5-oxo-7,8-dihydropyrido[4,3-d]pyrimidin-6(5H)-yl)-N,N-dimethylbenzamide] |
| 13.7 nM | COC(=O)C(C)(C)c1ccc(N2CCc3nc(OC)nc(N)c3C2=O)cc1 [Example 3A, methyl 2-[4-(4-amino-2-methoxy-5-oxo-7,8-dihydropyrido[4,3-d]pyrimidin-6(5H)-yl)phenyl]-2-methylpropanoate] |
| 46.2 nM | COc1nc(N)c2c(n1)CCN(c1ccc(C(C)(C)C(=O)O)cc1)C2=O [Example 3D, 2-[4-(4-amino-2-methoxy-5-oxo-7,8-dihydropyrido[4,3-d]pyrimidin-6(5H)-yl)phenyl]-2-methylpropanoic acid] |
| 51.5 nM | COc1nc(N)c2c(n1)CCN(c1ccc(C(C)(C)c3nc(C)no3)cc1)C2=O [Example 3F, 4-amino-2-methoxy-6-{4-[1-methyl-1-(3-methyl-1,2,4-oxadiazol-5-yl)ethyl]phenyl}-7,8-dihydropyrido[4,3-d]pyrimidin-5(6H)-one] |
